According to patent publication US11801209B2, “Cooling and flavor boosting compositions” (Firmenich SA, priority 2017, dated 2023):

Test system: expert panel of three subjects
Assay: Sensory evaluation of toothpaste test formulations by an expert panel: intensity of mint flavor and of cooling effect
Format: in vivo, human
Details: test toothpaste formulation, summary of Table 8
Experimental: The potentiation may be determined by any method readily selected by one of ordinary skill in the art. In some aspects, the potentiation is determined using a sensory panel. In the aspects where the potentiation is determined using a sensory panel a subject may contact their oral cavity with a composition, and rate the perceived flavor strength and cooing strength of the composition.
In some aspects, the perceived flavor intensity may be rated from 0 to 5, wherein 0 is no perceived flavor intensity, 1 is a very low perceived flavor intensity, 2 is a low perceived flavor intensity, 3 is a moderate perceived flavor intensity, 4 is a high perceived flavor intensity, and 5 is a very high perceived flavor intensity.
In some aspects, the perceived cooling intensity may be rated from 0 to 5, wherein 0 is no perceived cooling intensity, 1 is a very low perceived cooling intensity, 2 is a low perceived cooling intensity, 3 is a moderate perceived cooling intensity, 4 is a high perceived cooling intensity, and 5 is a very high perceived […].
(§1) An expert panel of three subjects was asked to evaluate the intensity of the mint flavor and the intensity of the cooling effect of the test formulations. The subjects were asked to apply approximately 1 g of a test sample on to a toothbrush, and rinse the toothbrush under running water for 5 secs to moisten the paste and soften the bristles. The subjects then brushed their teeth with the applied test sample, taking care to minimize any contact with the subjects' gums. The subjects then expectorated the test sample, and rinsed their mouth with water. The subjects then ranked the intensity of the mint flavor and the intensity of the cooling effect of the test formulations. The subjects were asked to wait for 15 min between each test sample.
as §1, with “subjects” for “subjects was”

Q: Which “effect on perceived flavor intensity and perceived cooling intensity of the mint flavor” value (shortened to “effect”) does the source give for O=C(CCc1ccc(O)cc1)c1c(O)cc(O)cc1O [phloretin] here?
A: The value was “able to increase both the perceived flavor intensity and the perceived cooling intensity”.

Q: With O=C(O)C1CCCCC1 [cyclohexanecarboxylic acid] as the compound, how does the “effect” value read?
A: Its value is “able to increase both the perceived flavor intensity and the perceived cooling intensity”.

Q: For CCCC(CCC)NC(=O)c1ccc2c(c1)OCO2 [n-(1-propylbutyl)-1,3-benzodioxole-5-carboxamide], which “effect” value is on record?
A: Its value is “able to increase both the perceived flavor intensity and the perceived cooling intensity”.

Q: How did the “effect” value turn out when COc1cc(/C=C/C(=O)O)ccc1O [ferulic acid] was run?
A: Its value is “able to increase both the perceived flavor intensity and the perceived cooling intensity”.

Q: CCCCC[C@@H]1C(=O)CC[C@@H]1CC(=O)OC [(+)-methyl(1R)-cis-3-oxo-2-pentyl-1-cyclopentaneacetate] was tested. Which “effect” value did it give?
A: Its value is “able to increase both the perceived flavor intensity and the perceived cooling intensity”.

Q: Which “effect” value does the source give for COC(C)=O [methyl acetate] here?
A: Its value is “able to increase both the perceived flavor intensity and the perceived cooling intensity”.

Q: With Cc1noc(C)c1Cn1cc(N2C(=O)CN(Cc3cccc(O)c3)C2=O)cn1 [3-(1-((3,5-dimethylisoxazol-4-yl)methyl)-1H-pyrazol-4-yl)-1-(3-hydroxybenzyl)imidazolidine-2,4-dione] as the compound, how does the “effect” value read?
A: The value was “able to increase both the perceived flavor intensity and the perceived cooling intensity”.
